Experiment [1] deals with Phakopsora pachyrhizi (F129L). The experiment in a line: Protective control of soybean rust on soybeans (PHAKPA P2). The experiment is classed as in vivo. The conditions noted are these: for % PHAKPA (F129L) Disease level P2 at 4 ppm: protective P2, 4 ppm; for % PHAKPA (F129L) Disease level P2 at 4 ppm / % PHAKPA (F129L) Disease level P2 at 16 ppm: soybean rust F129L; for % PHAKPA (F129L) Disease level P2 at 16 ppm: protective P2, 16 ppm.

Experiment [2] relates to Phakopsora pachyrhizi (F129L). The experiment in a line: Protective control of soybean rust on soybeans (PHAKPA P6). The format is in vivo. To be noted: for % PHAKPA (F129L) Disease level P6 at 4 ppm: protective P6, 4 ppm; for % PHAKPA (F129L) Disease level P6 at 4 ppm / % PHAKPA (F129L) Disease level P6 at 16 ppm: soybean rust F129L; for % PHAKPA (F129L) Disease level P6 at 16 ppm: protective P6, 16 ppm; for PHAKPA (F129L) Disease level (%) P6 at 4 ppm / PHAKPA (F129L) Disease level (%) P6 at 16 ppm: P6 protective, % diseased leaf area.

Where [3] appears, read: P2 protective, % diseased leaf area.

With `CNC(=O)/C(=N/OC)c1cccc(C)c1CO/N=C(\C)c1ccc(F)cc1` [compound 108], in experiment [1], the “% PHAKPA (F129L) Disease level P2 at 4 ppm” value was 1% and the “% PHAKPA (F129L) Disease level P2 at 16 ppm” value was determined as 0%. In experiment [2], the “% PHAKPA (F129L) Disease level P6 at 4 ppm” value came out at 1% and the “% PHAKPA (F129L) Disease level P6 at 16 ppm” value is given as 0%.

In the case of `CO/N=C(/C(=O)OC)c1cccc(C)c1CO/N=C(/c1ccc(F)cc1)C(F)F` [Ex. 21], in experiment [1], the “% PHAKPA (F129L) Disease level P2 at 4 ppm” value is on record as 100% and the “% PHAKPA (F129L) Disease level P2 at 16 ppm” value was determined as 77%. In experiment [2], the “% PHAKPA (F129L) Disease level P6 at 4 ppm” value worked out at 97% and the “% PHAKPA (F129L) Disease level P6 at 16 ppm” value stood at 88%.

On to `CO/N=C(/C(=O)OC)c1cccc(C)c1CO/N=C(\C)c1c(F)cc(Br)cc1C(F)(F)F` [compound 368], for which, in experiment [1], the “% PHAKPA (F129L) Disease level P2 at 4 ppm” value is 83% and the “% PHAKPA (F129L) Disease level P2 at 16 ppm” value stood at 47%. Further, in experiment [2], the “% PHAKPA (F129L) Disease level P6 at 4 ppm” value came out at 90% and the “% PHAKPA (F129L) Disease level P6 at 16 ppm” value turned out to be 73%.

Take `CNC(=O)/C(=N/OC)c1ccccc1CO/N=C(\C)c1ccccc1` [reference compound]: in experiment [1] (setting [3]), the “PHAKPA (F129L) Disease level (%) P2 at 4 ppm” value (“PHAKPA … (%) P2 at 4 ppm” below) came to 87%. In addition, the “PHAKPA (F129L) Disease level (%) P6 at 4 ppm” value in experiment [2] worked out at 100%.

`CC/C(=N\OCc1c(C)cccc1/C(=N\OC)C(=O)NC)c1ccccc1C(F)(F)F` [compound 189]: in experiment [1], the “% PHAKPA (F129L) Disease level P2 at 4 ppm” value was 82% and the “% PHAKPA (F129L) Disease level P2 at 16 ppm” value is listed as 28%. Also, in experiment [2], the “% PHAKPA (F129L) Disease level P6 at 4 ppm” value stood at 97% and the “% PHAKPA (F129L) Disease level P6 at 16 ppm” value is listed as 37%.

Turning to `CNC(=O)/C(=N/OC)c1cccc(C)c1CO/N=C(\C)c1cccc(C2CC2(Cl)Cl)c1` (stereo not drawn) [compound 75], in experiment [1], the “% PHAKPA (F129L) Disease level P2 at 4 ppm” value worked out at 8% and the “% PHAKPA (F129L) Disease level P2 at 16 ppm” value is given as 0%. For the same molecule, in experiment [2], the “% PHAKPA (F129L) Disease level P6 at 4 ppm” value was 13% and the “% PHAKPA (F129L) Disease level P6 at 16 ppm” value is recorded as 1%.

For the molecule `CO/N=C(/C(=O)OC)c1ccccc1CO/N=C(\C)c1ccccc1` [reference compound], the “PHAKPA (F129L) Disease level (%) P2 at 16 ppm” value in experiment [1] (P2 protective, 16 ppm, % diseased leaf area) is 87%. The “PHAKPA (F129L) Disease level (%) P6 at 16 ppm” value in experiment [2] amounted to 43%.

In the case of `C#Cc1cccc(/C(C)=N/OCc2c(C)cccc2/C(=N\OC)C(=O)NC)c1F` [compound 401], in experiment [1], the “% PHAKPA (F129L) Disease level P2 at 4 ppm” value is listed as 17% and the “% PHAKPA (F129L) Disease level P2 at 16 ppm” value came to 5%. In experiment [2], the “% PHAKPA (F129L) Disease level P6 at 4 ppm” value came out at 32% and the “% PHAKPA (F129L) Disease level P6 at 16 ppm” value is 4%.

As for `CNC(=O)/C(=N/OC)c1cccc(C)c1CO/N=C(\C)c1cccc(F)c1F` [compound 178], in experiment [1], the “% PHAKPA (F129L) Disease level P2 at 4 ppm” value is 6% and the “% PHAKPA (F129L) Disease level P2 at 16 ppm” value is listed as 0%. Also, in experiment [2], the “% PHAKPA (F129L) Disease level P6 at 4 ppm” value is listed as 2% and the “% PHAKPA (F129L) Disease level P6 at 16 ppm” value came to 0%.

`CO/N=C(/C(=O)OC)c1cccc(C)c1CO/N=C(\OC)c1cccc(C)c1` [drawing 970, reference compound]: in experiment [1] (setting [3]), the “PHAKPA … (%) P2 at 4 ppm” value came out at 83%. The “PHAKPA (F129L) Disease level (%) P6 at 16 ppm” value in experiment [2] was found to be 57%.

`CC/C(=N\OCc1c(C)cccc1/C(=N\OC)C(=O)NC)c1cccc(C(F)(F)F)c1` [Ex. 188]: in experiment [1] (setting [3]), the “PHAKPA … (%) P2 at 4 ppm” value is given as 2%. Further, in experiment [1], the “% PHAKPA (F129L) Disease level P2 at 4 ppm” value was found to be 1% and the “% PHAKPA (F129L) Disease level P2 at 16 ppm” value came out at 0%. Moreover, in experiment [2], the “PHAKPA (F129L) Disease level (%) P6 at 4 ppm” value is given as 30%, the “% PHAKPA (F129L) Disease level P6 at 4 ppm” value is recorded as 11% and the “% PHAKPA (F129L) Disease level P6 at 16 ppm” value stood at 0%.

Turning to `CO/N=C(/C(=O)OC)c1cccc(C)c1CO/N=C(\C)c1ccccc1OC` [compound 123], in experiment [1], the “% PHAKPA (F129L) Disease level P2 at 4 ppm” value was found to be 100% and the “% PHAKPA (F129L) Disease level P2 at 16 ppm” value came to 82%. Also, in experiment [2], the “% PHAKPA (F129L) Disease level P6 at 4 ppm” value is 90% and the “% PHAKPA (F129L) Disease level P6 at 16 ppm” value is given as 78%.

Consider `CO/N=C(/C(=O)OC)c1cccc(C)c1CO/N=C(\C)c1cc(C)ccc1C` [compound 203], for which, in experiment [1], the “% PHAKPA (F129L) Disease level P2 at 4 ppm” value is recorded as 87% and the “% PHAKPA (F129L) Disease level P2 at 16 ppm” value was found to be 32%. For the same molecule, in experiment [2], the “% PHAKPA (F129L) Disease level P6 at 4 ppm” value is recorded as 93% and the “% PHAKPA (F129L) Disease level P6 at 16 ppm” value stood at 32%.
